The record followed here is patent US20260256870A1, “SKIN COMPOSITION” (Eaderm Co., Ltd., priority 2019, published 2026).

The test system of data set [1] is skin damage induced by anticancer drugs. Nature of the data set: TEWL after EGF receptor inhibitor administration (Example 9). Particulars: control mice about 18 months old, 50 mg/kg/day intraperitoneal, day 7 (FIG. 18). The text has this:
A 0.5% methylcellulose solution of the solvent was similarly administered to the control non-treated group. […] Measurements were taken at specific sites on the back of the mice (two sites symmetrically located on the left side and right side from the center of the spine) using Tewameter TN300 (Courage+Khazaka, Integral Corporation, Germany).

Data set [2] deals with skin damage induced by erlotinib. Nature of the data set: Improvement of skin damage caused by erlotinib administration, TEWL (Example 10). The format is in vivo, C57BL6N mice. The conditions noted are these: erlotinib 50 mg/kg/day intraperitoneal, 7 weeks old or 6 months old mice (FIG. 19). On the procedure: Female […] mice (7 weeks old or 6 months old) were acclimatized to the experimental environment, and then hair was removed from their back under anesthesia. […] The control non-administered group received the 0.5% methylcellulose solution of the solvent in the same way. The control group applied with the solvent and the group applied with 200 μM apocynin received an aqueous solution of each preparation once a day, five times a week on the back. To the control solvent application group the solvent (50% ethanol/PBS) of apocynin was similarly applied.

Data set [3] deals with human epidermal keratinocytes. Nature of the data set: Colony formation assay using human epidermal keratinocytes. The format is cell-based. An excerpt:
To test whether COL17A1-mediated SCD maintains clonal proliferation of epidermal stem cell clones, the present inventors used a colony formation assay, which is an in vitro assay said to be the gold standard for assessing the self-renewal ability of epidermal stem cells, including cells in the tail epidermis.

Data set [4] deals with COL17A1. Nature of the data set: COL17A1 expression in human epidermal keratinocytes by high content imaging (HCS). In kind it is cell-based. The conditions noted are these: for COL17A1 expression level (control ratio): human epidermal keratinocytes, 48 hours after addition of reagents. The procedure:
The present inventors further searched for substances that induce or maintain the expression of COL17A1. Human epidermal keratinocytes were seeded in 384-well plates, cultured for 48 hours after addition of reagents, immunostained with an anti-COL17A1 antibody and a fluorescently labeled secondary antibody, and then the fluorescence intensity per cell was detected using a high content imaging system (HCS: High Content Screening). In addition to cell counting with DAPI, the expression level of COL17A1 was quantified.

The subject of data set [5] is COL17A1. Nature of the data set: Stabilization of COL17A1 against UV-induced repression.
Data set [6] has as its system UV-induced wrinkles of back skin. Nature of the data set: Wrinkle improvement after UV irradiation (Example 15). In kind it is in vivo, Hairless mice HOS: HR-1. Particulars: UVA+UVB, retinol 0.1%, apocynin 200 μM, long-term application (FIG. 25). The text has this:
In a mouse model in which wrinkle formation was induced by long-term exposure to ultraviolet (UVA) light, the present inventors examined the effect of substances that promote the self-renewal ability of epidermal stem cells on the improvement of wrinkles.
Hairless mice HOS: HR-1 females (7 weeks old) were acclimated to the experimental environment and then grouped into the […] groups below, so that their body weight values would be nearly uniform. • No UV irradiation group (n=2). • UV (UVA+UVB) irradiation+solvent application group (n=4) • Ultraviolet (UVA+UVB) irradiation+200 μM apocynin application group (n=4). • UV (UVA+UVB) irradiation+0.1% retinol application group (n=2) […]
For each group of mice from the first to the fourth week after the start of UV irradiation, the back was photographed with a high-resolution three-dimensional image analyzer PRIMOS-CR (Canfield Scientific, Inc., USA). Based on the images obtained, total wrinkle volume (mm^3) and total wrinkle mean depth (μm) were measured with the Primos OMC3_22 software. Skin flexibility was measured using Cutometer MPA580 (Courage+Khazaka, Integral Corporation, Germany), and the value of RO was used as skin flexibility.

A further data set has as its system back skin. Nature of the data set: Skin elasticity and TEWL after long-term application (Example 14). In kind it is in vivo, hairless mice (HOS: HR-1). Particulars: three times a week for seven weeks, day 53; retinol 0.1%, apocynin 200 μM (FIG. 23).
For data set [7], the system named is full thickness wounds in the skin of rodent tails. Nature of the data set: Full thickness wound healing in tail skin. The format is in vivo, mice. The conditions noted are these: day 0, day 14, day 21 (FIG. 12). On the procedure: To test the above hypothesis, the present inventors performed a full-layer wound healing experiment using the tail skin of aged wild-type mice. […] Forced expression of hCOL17A1 by basal layer keratinocytes in mice also promoted wound healing (FIG. 12). […] To confirm the beneficial effects in vivo, these drugs were administered to full thickness wounds in the skin of rodent tails.

In another data set the test system is UVB-irradiated back skin. Nature of the data set: Barrier function after UVB irradiation (Example 12). In kind it is in vivo, Hairless mice HOS: HR-1. The conditions noted are these: for water content of the stratum corneum after ultraviolet irradiation: UVB 150 mJ/cm^2, fourth day (FIG. 21). The procedure:
Hairless mice HOS: HR-1 females (7 weeks old) were acclimatized to the experimental environment and then grouped into the 6 groups below, so that the body weight values were nearly uniform. • No ultraviolet irradiation group (n=2) • Ultraviolet (UVB) irradiation+solvent application group (n=4). • Ultraviolet (UVB) irradiation+200 nM apocynin application group (n=4). • Ultraviolet (UVB) irradiation+200 μM apocynin application group (n=4). • Ultraviolet (UVB) irradiation+2 μM Y-27632 application group (n=4). • Ultraviolet (UVB) irradiation+20 μM Y-27632 application group (n=4) In the above solution application group, aqueous solutions of each preparation were applied to hairless mice on their back once a day for five days, starting from the day before ultraviolet irradiation. UVB irradiation was carried out using a Yayoi ultraviolet irradiation system (Y-UV-Lab-K-D5 lamp type) at an intensity of 150 mJ/cm^2 once a day. The stratum corneum water content and TEWL of the irradiated area were measured for each group of mice on the fourth day after the start of ultraviolet irradiation. The measurements were performed using Corneometer CM825 and Tewameter TN300 (Courage+Khazaka, Integral Corporation, Germany) at specific sites on the back of the mice.

The subject of data set [8] is COL17A1. The conditions noted are these: HaCaT cells, 24 hours after hydrogen peroxide treatment (FIG. 17).
Experimental: The anticancer agent hydroxyurea was administered to 7-week-old C57BL6 mice three times a month, and the tissues were collected three months later for immunostaining using an antibody for COL17A1. […] In addition, HaCaT cells, which are human epidermal keratinocytes, were irradiated with radiation (20 Gy, 30 Gy) and UV light (20 mJ, 30 mJ) and the cells were collected after 24 and 72 hours, respectively, and Western blotting was performed using an antibody against COL17A1.
[9] abbreviates: Table 1, fluorescence intensity per cell.

Entries after “also recorded” stand apart in the source; their conditions may differ. Counter-ions that a name gives are not always drawn.

As for `C#Cc1cccc(Nc2ncnc3cc(OCCOC)c(OCCOC)cc23)c1` [Erlotinib], the TEWL entry in data set [1] and in data set [2] was “significantly increased” each time.

With `CC(C)=CCC1=C(O)C(=O)c2ccccc2C1=O` [Lapachol], in data set [3] (Table 2), the “Colony area (control ratio)” value is listed as “⊚ (one double circle (⊚) indicates maintenance of 1.0-1.2-fold)” and the “Colony number (control ratio)” value is “⊚ (one double circle (⊚) indicates maintenance of 1.0-1.2-fold)”. The “COL17A1 expression level (control ratio)” value in the data set with COL17A1 [4] (Table 2) is “⊚⊚ (two double circles (⊚⊚) in the COL17A1 expression level (control ratio) represent a 2.0-fold or greater increase in the expression level)”.

With `CC(=O)c1ccc2c(c1)Nc1ccccc1S2` [ML171], in data set [3] (Table 1), the “Colony area (control ratio)” value is listed as “⊚ (one double circle (⊚) indicates maintenance of 1.0-1.2-fold)” and the “Colony number (control ratio)” value was “⊚ (one double circle (⊚) indicates maintenance of 1.0-1.2-fold)”. The “COL17A1 expression level (control ratio)” value in the data set on COL17A1 [4] (setting [9]) is on record as “○ (one circle (0) represents a 1.0-1.2-fold maintenance)”.

With `CNC(=O)[C@@H](NC(=O)[C@H](CC(C)C)[C@H](O)C(=O)NO)C(C)(C)C` [Marimastat], the “COL17A1 stability / UV-induced downward repression of COL17A1” value with COL17A1 [5] is “stabilizes COL17A1 and blocks the UV-induced downward repression of COL17A1”.

For `CN1C(=O)C(Cc2c[nH]c3ccccc23)NC1=S` (centres unmarked) [Necrostatin-1], in data set [3] (Table 1), the “Colony area (control ratio)” value is recorded as “⊚ (one double circle (⊚) indicates maintenance of 1.0-1.2-fold)” and the “Colony number (control ratio)” value was “⊚ (one double circle (⊚) indicates maintenance of 1.0-1.2-fold)”. Further, the “COL17A1 expression level (control ratio)” value in the data set with COL17A1 [4] (setting [9]) is “⊚ (one double circle (⊚) represents a 1.2-fold or greater increase)”.

Regarding `OC1(c2ccc(Cl)c(C(F)(F)F)c2)CCN(CCCC(c2ccc(F)cc2)c2ccc(F)cc2)CC1` [Penfluridol], in data set [3] (Table 1), the “Colony area (control ratio)” value is recorded as “⊚ (one double circle (⊚) indicates maintenance of 1.0-1.2-fold)” and the “Colony number (control ratio)” value was “⊚ (one double circle (⊚) indicates maintenance of 1.0-1.2-fold)”. Moreover, in the data set with COL17A1 [4] (setting [9]), the “COL17A1 expression level (control ratio)” value is listed as “⊚ (one double circle (⊚) represents a 1.2-fold or greater increase)”.

On to `CC1=C(/C=C/C(C)=C/C=C/C(C)=C/CO)C(C)(C)CCC1` [Retinol], for which the TEWL entry in data set [6] was “significantly increased”; in data set [6] (listed as retinol) it was “marked increase”. For the same compound, in the data set on back skin, the “TEWL after long-term continuous application” value was “significantly increased”.

Regarding `C[C@H]1CNCCCN1S(=O)(=O)c1cccc2cncc(F)c12` [Ripasudil], in [3] (Table 1), the “Colony area (control ratio)” value was “⊚ (one double circle (⊚) indicates maintenance of 1.0-1.2-fold)” and the “Colony number (control ratio)” value is reported as “⊚ (one double circle (⊚) indicates maintenance of 1.0-1.2-fold)”. The “COL17A1 expression level (control ratio)” value in the data set with COL17A1 [4] (setting [9]) was “⊚⊚ (two double circles (⊚⊚) in the COL17A1 expression level (control ratio) represent a 2.0-fold or greater increase in the expression level)”.

With `CC(CN(C)C)CN1c2ccccc2CCc2ccccc21` (centres unmarked) [Trimipramine Maleate], in data set [3] (Table 1), the “Colony area (control ratio)” value is listed as “⊚ (one double circle (⊚) indicates maintenance of 1.0-1.2-fold)” and the “Colony number (control ratio)” value was “⊚ (one double circle (⊚) indicates maintenance of 1.0-1.2-fold)”. Also, the “COL17A1 expression level (control ratio)” value in the data set on COL17A1 [4] (setting [9]) is given as “⊚⊚ (two double circles (⊚⊚) in the COL17A1 expression level (control ratio) represent a 2.0-fold or greater increase in the expression level)”.

For the compound `C[C@@H](N)[C@H]1CC[C@H](C(=O)Nc2ccncc2)CC1` [Y-27632], the “wound repair (unrepaired wound area)” value was “significantly accelerated” in [7] and “significantly promote the wound repair process” in [7] (listed as Y27632). Besides, the “Colony area (control ratio)” value in data set [3] (Table 1) was “⊚ (one double circle (⊚) indicates maintenance of 1.0-1.2-fold)”. In [3] (Table 1), the “Colony number (control ratio)” value is on record as “⊚ (one double circle (⊚) indicates maintenance of 1.0-1.2-fold)”. Besides, the number of colonies entry in data set [3] (compared to the control, n=3 wells (FIG. 13, FIG. 16)) is reported as “significantly increased”. Also, in data set [3] (compared to the control, n=3 wells (FIG. 14)), the “average size of the top five colonies” value was “significantly increased”. Further, the colony size result in data set [3] (human epidermal keratinocytes) is “significantly increased”. In [3] (n=3 wells (FIG. 13 right)), the “number of colonies with a diameter greater than 2 mm” value was “significantly increased”. The “COL17A1 expression level (control ratio)” value with COL17A1 [4] (setting [9]) is “⊚⊚ (two double circles (⊚⊚) in the COL17A1 expression level (control ratio) represent a 2.0-fold or greater increase in the expression level)”. The “COL17A1 expression / amount of COL17A1 in cultured keratinocytes compared to the control” value in the data set on COL17A1 [4] (in vitro, HCS (FIG. 15)) is “maintain or induce the COL17A1 expression; also recorded: induce the COL17A1 expression”. In addition, the “water content of the stratum corneum after ultraviolet irradiation” value with UVB-irradiated back skin (2 μM applied) and in the data set on UVB-irradiated back skin (20 μM applied) was “significantly higher” in each case. Besides, in the data set on UVB-irradiated back skin (20 μM administration group, UVB, fourth day (FIG. 21)), the “TEWL after ultraviolet irradiation” value is given as “significantly lower”.

In the case of `OO` [hydrogen peroxide], the “expression of COL17A1 (Western blot)” value in the data set with COL17A1 [8] is “marked decrease”.

In the case of Helenin, in data set [3] (Table 2), the “Colony area (control ratio)” value is on record as “⊚ (one double circle (⊚) indicates maintenance of 1.0-1.2-fold)” and the “Colony number (control ratio)” value is recorded as “⊚ (one double circle (⊚) indicates maintenance of 1.0-1.2-fold)”. Besides, the “COL17A1 expression level (control ratio)” value with COL17A1 [4] (Table 2) is on record as “⊚⊚ (two double circles (⊚⊚) in the COL17A1 expression level (control ratio) represent a 2.0-fold or greater increase in the expression level)”.
